The values that follow come from US12202821B2, “Herbicidal compounds” (SYNGENTA CROP PROTECTION AG, priority 2019, dated 2025).

Holding throughout (type): in vivo
Assay [1] concerns AMAPA. As to the kind of experiment: Pre-emergence biological efficacy. Particulars: 312 h, evaluated after 13 days, read-out: damage to plant (100=total damage to plant; 0=no damage to plant), AMAPA. How it is done: (§1) Pre-Emergence Biological Efficacy
(§2) Seeds of weeds and/or crops were sown in standard soil in pots. After cultivation for one day under controlled conditions in a glasshouse (at 24/16° C., day/night; 14 hours light; 65% humidity), the plants were sprayed with an aqueous spray solution derived from the formulation of the technical active ingredient in acetone/water (50:50) solution containing 0.5% Tween 20 (polyoxyethylene sorbitan monolaurate, CAS RN 9005-64-5) to give the desired final dose of test compound.
(§3) The test plants were then grown under controlled conditions in the glasshouse (at 24/16° C., day/night; 14 hours light; 65% humidity) and watered twice daily. After 13 days the test was evaluated (100=total damage to plant; 0=no damage to plant).

Assay [2] concerns IPOHE. The assay is described as follows: Pre-emergence biological efficacy. As to conditions: Ipomoea hederacea, 312 h, evaluated after 13 days, read-out: damage to plant (100=total damage to plant; 0=no damage to plant), IPOHE. Here is the method:
as §1, §2, §3

For assay [3], the system named is LOLPE. As to the kind of experiment: Pre-emergence biological efficacy. As to conditions: 312 h, evaluated after 13 days, read-out: damage to plant (100=total damage to plant; 0=no damage to plant), LOLPE. How it is done: as §1, §2, §3
In assay [4] the test system is SETFA. The assay is described as follows: Pre-emergence biological efficacy. As to conditions: Setaria faberi, 312 h, evaluated after 13 days, read-out: damage to plant (100=total damage to plant; 0=no damage to plant), SETFA. Here is the method: as §1, §2, §3
In assay [5] the test system is ECHCG. The assay is described as follows: Pre-emergence biological efficacy. As to conditions: Echinochloa crus-galli, 312 h, evaluated after 13 days, read-out: damage to plant (100=total damage to plant; 0=no damage to plant), ECHCG. How it is done:
as §1, §2, §3

Assay [6] relates to EPHHL. As to the kind of experiment: Pre-emergence biological efficacy. As to conditions: 312 h, evaluated after 13 days, read-out: damage to plant (100=total damage to plant; 0=no damage to plant), EPHHL. How it is done: as §1, §2, §3
For assay [7], the system named is AMAPA. The assay is described as follows: Post-emergence biological efficacy. As to conditions: 312 h, evaluated after 13 days, read-out: damage to plant (100=total damage to plant; 0=no damage to plant), AMAPA. Here is the method:
(§4) Post-Emergence Biological Efficacy
(§5) Seeds of weeds and/or crops were sown in standard soil in pots. After cultivation for 8 days under controlled conditions in a glasshouse (at 24/16° C., day/night; 14 hours light; 65% humidity), the plants were sprayed with an aqueous spray solution derived from the formulation of the technical active ingredient in acetone/water (50:50) solution containing 0.5% Tween 20 (polyoxyethylene sorbitan monolaurate, CAS RN 9005-64-5) to give the desired final dose of test compound.
(§6) The test plants were then grown on under controlled conditions in a glasshouse (at 24/16° C., day/night; 14 hours light; 65% humidity) and watered twice daily. After 13 days the test was evaluated (100=total damage to plant; 0=no damage to plant).

The subject of the next assay is CHEAL. The assay is described as follows: Post-emergence biological efficacy. Particulars: Chenopodium album, 312 h, evaluated after 13 days, read-out: damage to plant (100=total damage to plant; 0=no damage to plant), CHEAL. How it is done:
as §4, §5, §6

Assay [8] concerns IPOHE. The assay is described as follows: Post-emergence biological efficacy. As to conditions: Ipomoea hederacea, 312 h, evaluated after 13 days, read-out: damage to plant (100=total damage to plant; 0=no damage to plant), IPOHE. Here is the method: as §4, §5, §6
Assay [9] deals with LOLPE. The assay is described as follows: Post-emergence biological efficacy. Particulars: 312 h, evaluated after 13 days, read-out: damage to plant (100=total damage to plant; 0=no damage to plant), LOLPE. How it is done: as §4, §5, §6
Assay [10] relates to SETFA. As to the kind of experiment: Post-emergence biological efficacy. Particulars: Setaria faberi, 312 h, evaluated after 13 days, read-out: damage to plant (100=total damage to plant; 0=no damage to plant), SETFA. How it is done: as §4, §5, §6
The next assay concerns ELEIN. As to the kind of experiment: Post-emergence biological efficacy. As to conditions: 312 h, evaluated after 13 days, read-out: damage to plant (100=total damage to plant; 0=no damage to plant), ELEIN. Here is the method:
as §4, §5, §6

Assay [11] has as its system ECHCG. The assay is described as follows: Post-emergence biological efficacy. As to conditions: Echinochloa crus-galli, 312 h, evaluated after 13 days, read-out: damage to plant (100=total damage to plant; 0=no damage to plant), ECHCG. Here is the method: as §4, §5, §6
For assay [12], the system named is EPHHL. The assay is described as follows: Post-emergence biological efficacy. As to conditions: 312 h, evaluated after 13 days, read-out: damage to plant (100=total damage to plant; 0=no damage to plant), EPHHL. How it is done: as §4, §5, §6
For another assay, the system named is DIGSA. As to the kind of experiment: Post-emergence biological efficacy. Particulars: Digitaria sanguinalis, 312 h, evaluated after 13 days, read-out: damage to plant (100=total damage to plant; 0=no damage to plant), DIGSA. Here is the method:
as §4, §5, §6

In the case of `Cn1c(=S)n(C)c(=O)n(-c2cc(C3=NOC(C)(C(=O)O)C3)c(Cl)cc2F)c1=O` (stereo not drawn) [Compound 45, 3-[2-chloro-5-(3,5-dimethyl-2,6-dioxo-4-thioxo-1,3,5-triazinan-1-yl)-4-fluoro-phenyl]-5-methyl-4H-isoxazole-5-carboxylic acid], the pest or weed control at 250 g/ha in the assay on AMAPA [1], with IPOHE [2], in the assay with LOLPE [3], in the assay with SETFA [4], in the assay on ECHCG [5] and with EPHHL [6] was 100% throughout. Besides, the pest or weed control at 250 g/ha in the assay on AMAPA [7], in the assay with CHEAL, with IPOHE [8], in the assay on LOLPE [9], with SETFA [10] and in the assay with ELEIN was 100% in each case. The pest or weed control at 250 g/ha in the assay on ECHCG [11], with EPHHL [12] and with DIGSA was 100% each time.

Regarding `COC(=O)C1(OC)CC(c2cc(-n3c(=O)n(C)c(=S)n(C)c3=O)c(F)cc2Cl)=NO1` (stereo not drawn) [Compound 311, Methyl 3-[2-chloro-5-(3,5-dimethyl-2,6-dioxo-4-thioxo-1,3,5-triazinan-1-yl)-4-fluoro-phenyl]-5-methoxy-4H-isoxazole-5-carboxylate], the pest or weed control at 250 g/ha in the assay with AMAPA [1] was determined as 100%; in the assay on IPOHE [2], 70%; in the assay with LOLPE [3] it was 10%; in the assay with SETFA [4], 90%; in the assay with ECHCG [5], 10%; in the assay on EPHHL [6], 50%. Moreover, the pest or weed control at 250 g/ha came to 90% in the assay on AMAPA [7]; 90% in the assay on CHEAL; 90% in the assay on IPOHE [8]; 50% in the assay with LOLPE [9]; 100% with SETFA [10]; 90% with ELEIN. In addition, the pest or weed control at 250 g/ha with ECHCG [11] was found to be 90%; with EPHHL [12], 90%; in the assay on DIGSA it was 80%.

Take `Cn1c(=S)n(C)c(=O)n(-c2cc(C3=NOC(C)(CO)C3)c(Cl)cc2F)c1=O` (stereo not drawn) [Compound 49, 3-[4-chloro-2-fluoro-5-[5-(hydroxymethyl)-5-methyl-4H-isoxazol-3-yl]phenyl]-1,5-dimethyl-6-thioxo-1,3,5-triazinane-2,4-dione]: the pest or weed control at 250 g/ha in the assay with AMAPA [1] was 100%; in the assay with IPOHE [2], 90%; with LOLPE [3], 90%; with SETFA [4] it was 100%; in the assay with ECHCG [5], 90%; in the assay with EPHHL [6], 100%. Further, the pest or weed control at 250 g/ha in the assay on AMAPA [7] is 100%; in the assay on CHEAL, 100%; in the assay on IPOHE [8] it was 100%; in the assay with LOLPE [9] it was 60%; in the assay with SETFA [10] it was 100%; with ELEIN it was 90%. Moreover, the values for the pest or weed control at 250 g/ha in the assay with ECHCG [11], in the assay on EPHHL [12] and in the assay with DIGSA were 70%, 100% and 90%, respectively.

As to `COC(=O)CO/N=C(\C)C1(C)CC(c2cc(-n3c(=O)n(C)c(=S)n(C)c3=O)c(F)cc2Cl)=NO1` (stereo not drawn) [Compound 299, methyl 2-[1-[3-[2-chloro-5-(3,5-dimethyl-2,6-dioxo-4-thioxo-1,3,5-triazinan-1-yl)-4-fluoro-phenyl]-5-methyl-4H-isoxazol-5-yl]ethylideneamino]oxyacetate], the pest or weed control at 250 g/ha with AMAPA [1] amounted to 100%; with IPOHE [2], 80%; with LOLPE [3], 60%; with SETFA [4], 60%; in the assay with ECHCG [5], 0%; in the assay on EPHHL [6], 90%. Besides, the pest or weed control at 250 g/ha in the assay with AMAPA [7] turned out to be 100%; in the assay with CHEAL, 100%; with IPOHE [8] it was 90%; with LOLPE [9] it was 90%; in the assay on SETFA [10] it was 100%; with ELEIN, 90%. For the same compound, the pest or weed control at 250 g/ha in the assay on ECHCG [11] is 100%; with EPHHL [12], 90%; with DIGSA, 80%.

`Cn1c(=S)n(C)c(=O)n(-c2cc(C3=NOC(C)(C(=O)O)C3)c(Cl)cc2Cl)c1=O` (stereo not drawn) [Compound 56, 3-[2,4-dichloro-5-(3,5-dimethyl-2,6-dioxo-4-thioxo-1,3,5-triazinan-1-yl)-phenyl]-5-methyl-4H-isoxazole-5-carboxylic acid]: the pest or weed control at 250 g/ha in the assay with AMAPA [1] was 90%; in the assay with IPOHE [2] it was 30%; in the assay with LOLPE [3] it was 10%; in the assay on SETFA [4] it was 10%; with ECHCG [5] it was 0%; in the assay with EPHHL [6], 10%. The pest or weed control at 250 g/ha in the assay on AMAPA [7] is 100%; with CHEAL it was 90%; in the assay with IPOHE [8], 90%; in the assay with LOLPE [9], 30%; in the assay on SETFA [10] it was 90%; with ELEIN, 80%. For the same compound, the pest or weed control at 250 g/ha in the assay on ECHCG [11] was 90%; in the assay with EPHHL [12], 80%; in the assay on DIGSA, 80%.

For `CO/N=C(\C)C1(C)CC(c2cc(-n3c(=O)n(C)c(=S)n(C)c3=O)c(F)cc2Cl)=NO1` (stereo not drawn) [Compound 293], the pest or weed control at 250 g/ha in the assay on AMAPA [1] stood at 100%; in the assay on IPOHE [2], 50%; in the assay with LOLPE [3], 90%; with SETFA [4] it was 100%; in the assay with ECHCG [5], 90%; in the assay on EPHHL [6] it was 100%. Moreover, the pest or weed control at 250 g/ha with AMAPA [7] is 100%; in the assay on CHEAL, 100%; with IPOHE [8], 100%; in the assay on LOLPE [9], 60%; in the assay with SETFA [10], 90%; in the assay with ELEIN, 90%. The pest or weed control at 250 g/ha is 30% with ECHCG [11], 100% in the assay with EPHHL [12] and 100% in the assay on DIGSA.

Turning to `Cn1c(=S)n(C)c(=O)n(-c2cc(C3=NOC(C)(C(=O)NS(C)(=O)=O)C3)c(Cl)cc2F)c1=O` (stereo not drawn) [Compound 284, 3-[2-chloro-5-(3,5-dimethyl-2,6-dioxo-4-thioxo-1,3,5-triazinan-1-yl)-4-fluoro-phenyl]-5-methyl-N-methylsulfonyl-4H-isoxazole-5-carboxamide], the pest or weed control at 250 g/ha worked out at 100% with AMAPA [1]; 100% with IPOHE [2]; 40% in the assay with LOLPE [3]; 70% in the assay on SETFA [4]; 30% in the assay on ECHCG [5]; 100% in the assay on EPHHL [6]. In addition, the pest or weed control at 250 g/ha in the assay with AMAPA [7] amounted to 100%; with CHEAL, 100%; in the assay with IPOHE [8] it was 100%; in the assay with LOLPE [9], 80%; with SETFA [10] it was 100%; in the assay with ELEIN, 100%. The pest or weed control at 250 g/ha with ECHCG [11] came out at 100%; in the assay with EPHHL [12], 90%; with DIGSA, 100%.
